Our source for the GI50 and TGI values is PubChem BioAssay (NCI).

Among the test systems are SK-MEL-5 melanoma; PC-3 prostate; HCC-2998 colon; HS 578T breast; U251 CNS; MDA-MB-231 breast; HT29 colon; SF-268 CNS; TK-10 renal; SNB-75 CNS.
Common to all, as to assay: NCI-60 cell line screen, 48 h

Structures are written as SMILES.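 Each compound was tested at five concentrations against cells in 96-well plates for 48 hours. Abbreviation: GI50, concentration required for 50% inhibition of growth. TGI: concentration producing complete growth inhibition.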

As for `COC1C(CO)OC(n2c3ccccc3c3c4c(c5c6ccccc6[nH]c5c32)C(=O)NC4=O)C(O)C1O` (centres undefined), the GI50 in the test with SK-MEL-5 melanoma was 13.3 nM; in the test with PC-3 prostate, 206 nM; in the test with HCC-2998 colon, 127 nM; in the test with HS 578T breast it was 180 nM; with U251 CNS, less than 10 nM; in the test with MDA-MB-231 breast, 59.5 nM. In addition, the GI50 was 230 nM with HT29 colon, 18.9 nM with SF-268 CNS, 143 nM in the test on TK-10 renal and 158 nM in the test on SNB-75 CNS. Besides, the TGI amounted to 60.8 nM in the test on SK-MEL-5 melanoma; 7060 nM in the test with PC-3 prostate; 1500 nM in the test on HCC-2998 colon; 757 nM in the test with HS 578T breast; 141 nM in the test with U251 CNS; 343 nM in the test on MDA-MB-231 breast. For the same compound, the TGI with HT29 colon was more than 37700 nM; with SF-268 CNS, 586 nM; with TK-10 renal it was 548 nM; in the test on SNB-75 CNS, 3850 nM.

For `C[C@]12CCc3nc(Nc4cccc(O)c4)sc3C1=CC[C@@H]1[C@@H]2CC[C@]2(C)/C(=N\NC(N)=S)CC[C@@H]12`, the GI50 is 1800 nM with SK-MEL-5 melanoma; 1700 nM with PC-3 prostate; 1860 nM in the test with HCC-2998 colon; 843 nM in the test on HS 578T breast; 1150 nM in the test on U251 CNS; 1750 nM with MDA-MB-231 breast. Moreover, the GI50 is 1520 nM in the test on HT29 colon, 1660 nM with SF-268 CNS, 1900 nM with TK-10 renal and 792 nM in the test with SNB-75 CNS. Also, the TGI in the test with SK-MEL-5 melanoma amounted to 3630 nM; with PC-3 prostate, 6350 nM; in the test on HCC-2998 colon, 3490 nM; with U251 CNS it was 2960 nM; in the test on MDA-MB-231 breast it was 4950 nM; in the test on HT29 colon, 3730 nM. Besides, the TGI in the test with SF-268 CNS was 4450 nM; in the test on TK-10 renal it was 4400 nM; in the test on SNB-75 CNS, 7010 nM.

In the case of `CN(C)c1ccc(/C=C/c2ccnc3c(O)cccc23)cc1`, the GI50 is 370 nM with SK-MEL-5 melanoma; 383 nM in the test on PC-3 prostate; 2090 nM in the test on HCC-2998 colon; 850 nM in the test on HS 578T breast; 338 nM with U251 CNS; 434 nM in the test with MDA-MB-231 breast. In addition, the GI50 with HT29 colon was 11700 nM; with SF-268 CNS it was 463 nM; in the test with TK-10 renal, 1680 nM; in the test on SNB-75 CNS, 372 nM. Also, the TGI in the test with SK-MEL-5 melanoma was 3050 nM; in the test on PC-3 prostate it was more than 100000 nM; in the test with HCC-2998 colon it was more than 100000 nM; with HS 578T breast, more than 100000 nM; with U251 CNS, more than 100000 nM; with MDA-MB-231 breast it was more than 100000 nM. The TGI in the test on HT29 colon was more than 100000 nM; in the test with SF-268 CNS it was more than 100000 nM; in the test on TK-10 renal, more than 100000 nM; with SNB-75 CNS, 36600 nM.

On to `COC(=O)[C@@H](C)C[C@H](Cc1cn(C)c2ccccc12)NC(=O)c1csc([C@@H](C[C@H](C(C)C)N(C)C(=O)[C@@H](NC(=O)[C@H]2CCCCN2C)C(C)C)OC(C)=O)n1`, for which the GI50 in the test on SK-MEL-5 melanoma is 5.95 nM; in the test with PC-3 prostate it was 13.9 nM; in the test with HCC-2998 colon it was 92.5 nM; in the test on HS 578T breast it was 10.5 nM; in the test with U251 CNS, 10.2 nM; in the test on MDA-MB-231 breast it was 23.9 nM. Moreover, the GI50 was 6.32 nM in the test on HT29 colon, 27.2 nM in the test on SF-268 CNS, 2770 nM in the test on TK-10 renal and 8.87 nM with SNB-75 CNS. Moreover, the TGI in the test with SK-MEL-5 melanoma is 252 nM; in the test on PC-3 prostate, more than 16700 nM; with HCC-2998 colon, more than 16700 nM; in the test with HS 578T breast it was 7580 nM; with U251 CNS, more than 16700 nM; in the test on MDA-MB-231 breast, 966 nM. Moreover, the TGI in the test on HT29 colon is more than 6310 nM; in the test with SF-268 CNS it was more than 16700 nM; in the test with TK-10 renal, more than 16700 nM; in the test on SNB-75 CNS, more than 14000 nM.

For `Nc1c(C(=O)c2ccc(-c3cccnc3)cc2)cnn1-c1ccc(F)cc1`, the GI50 was more than 15200 nM with SK-MEL-5 melanoma; more than 25000 nM in the test on PC-3 prostate; more than 25000 nM in the test with HCC-2998 colon; more than 25000 nM in the test with HS 578T breast; more than 15200 nM in the test on U251 CNS; more than 13100 nM in the test with MDA-MB-231 breast. Also, the GI50 in the test on HT29 colon was more than 21600 nM; in the test with SF-268 CNS it was more than 15800 nM; with TK-10 renal it was more than 19300 nM; in the test with SNB-75 CNS, 11300 nM. In addition, the TGI in the test with SK-MEL-5 melanoma, with PC-3 prostate, with HCC-2998 colon, in the test with HS 578T breast, with U251 CNS and in the test on MDA-MB-231 breast was more than 25000 nM throughout. The TGI in the test with HT29 colon, in the test on SF-268 CNS, with TK-10 renal and with SNB-75 CNS was more than 25000 nM throughout.

For `C[C@]12CC[C@@H]3c4cc(OC(F)F)c(O)cc4CC[C@H]3[C@@H]1CC[C@@H]2OS(N)(=O)=O`, the GI50 in the test on SK-MEL-5 melanoma was 634 nM; in the test on PC-3 prostate, 729 nM; in the test with HCC-2998 colon, 1940 nM; in the test with HS 578T breast, 475 nM; in the test with U251 CNS it was 549 nM; in the test on MDA-MB-231 breast it was 2680 nM. Also, the GI50 in the test on HT29 colon was 846 nM; in the test with SF-268 CNS, 3150 nM; with TK-10 renal it was 14600 nM; in the test with SNB-75 CNS, 230 nM. In addition, the TGI in the test on SK-MEL-5 melanoma amounted to 13300 nM; in the test with PC-3 prostate, 97600 nM; in the test with HCC-2998 colon, 33400 nM; with HS 578T breast, 48800 nM; with U251 CNS, 19500 nM; in the test with MDA-MB-231 breast, 41500 nM. Further, the TGI in the test on HT29 colon is 17800 nM; with SF-268 CNS it was more than 100000 nM; in the test on TK-10 renal it was more than 92500 nM; in the test on SNB-75 CNS, 945 nM.

Turning to `Cc1ccc(Cl)cc1Nc1nc(C(F)(F)F)ccc1C(=O)N/N=C/c1cccnc1`, the GI50 in the test on SK-MEL-5 melanoma is 2500 nM; in the test on PC-3 prostate, 1990 nM; in the test on HCC-2998 colon, 2030 nM; with HS 578T breast it was 4050 nM; in the test with U251 CNS it was 2140 nM; in the test with MDA-MB-231 breast, 2080 nM. The GI50 is 5730 nM with HT29 colon, 1550 nM in the test on SF-268 CNS, 1320 nM with TK-10 renal and 4930 nM in the test with SNB-75 CNS. In addition, the TGI in the test on SK-MEL-5 melanoma was 10300 nM; with PC-3 prostate, 18700 nM; with HCC-2998 colon, 11100 nM; in the test with HS 578T breast, 18500 nM; in the test with U251 CNS, 11700 nM; in the test on MDA-MB-231 breast, 17400 nM. The TGI came out at 20700 nM with HT29 colon, 9320 nM in the test on SF-268 CNS, 8890 nM in the test with TK-10 renal and 19500 nM in the test on SNB-75 CNS.
